According to patent US4582794A, “Method of determining polyamine content of biological fluids” (The University of Arizona Foundation, priority 1982, dated 1986):

Target: T1, guinea pig liver transglutaminase (UniProt P08587)
T1 construct: guinea pig liver transglutaminase; from tissue; host or cells: guinea pig liver
T1 sequence (P08587 2-690 limits assumed): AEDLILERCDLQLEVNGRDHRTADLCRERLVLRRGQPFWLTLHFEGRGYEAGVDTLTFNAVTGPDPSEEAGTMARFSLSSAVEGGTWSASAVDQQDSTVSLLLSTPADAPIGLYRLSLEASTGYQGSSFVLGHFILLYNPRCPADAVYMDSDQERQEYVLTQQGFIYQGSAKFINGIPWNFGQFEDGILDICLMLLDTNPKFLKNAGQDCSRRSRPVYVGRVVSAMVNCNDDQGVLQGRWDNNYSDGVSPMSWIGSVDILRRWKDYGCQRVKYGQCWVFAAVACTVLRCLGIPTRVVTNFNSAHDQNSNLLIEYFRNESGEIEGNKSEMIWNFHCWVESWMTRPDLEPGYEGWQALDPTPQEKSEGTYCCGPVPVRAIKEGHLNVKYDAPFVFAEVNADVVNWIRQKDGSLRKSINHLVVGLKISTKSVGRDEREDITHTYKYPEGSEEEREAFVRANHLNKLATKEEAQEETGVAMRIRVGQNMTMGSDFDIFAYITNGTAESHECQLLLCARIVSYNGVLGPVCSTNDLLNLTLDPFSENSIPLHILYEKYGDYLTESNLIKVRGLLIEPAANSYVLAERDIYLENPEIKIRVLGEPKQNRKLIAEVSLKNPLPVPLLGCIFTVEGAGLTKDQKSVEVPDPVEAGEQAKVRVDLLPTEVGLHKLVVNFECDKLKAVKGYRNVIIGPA
Assay: transglutaminase-competition assay (incorporation of [3H]putrescine into dimethylated casein)
Type: biochemical
Settings: 0.1 μM [3H]putrescine; 30 mM tris(hydroxymethyl)aminomethane HCl pH 8.0; FIG. 2
Protocol: The transglutaminase competition assay was conducted in the presence of 30 mM tris(hydroxymethyl)aminomethane HCl, pH 8.3 (closed circles); 30 mM glycine, pH 9.25, (open circles); 30 mM glycine, pH 9.75 (open triangles); or 30 mM glycine, pH 10.0 (open squares). The data were obtained in the presence of increasing amounts of unlabeled putrescine.
The ability of transglutaminase to incorporate polyamines into a covalent conjugate with protein is the basis for an assay procedure based on competition between radiolabeled polyamine and unlabeled polyamine-containing standards or samples as the enzyme's substrates. However, because the affinity of transglutaminase for amine-containing substrates is relatively low the assay reaction could not be conducted under saturating substrate conditions and yield the level of sensitivity required to measure the polyamine content of biological samples. Therefore, assay conditions were developed which would make the protein acceptor substrate ratelimiting and allow the reaction to be run to completion, the radioactive and unlabeled polyamine competing for the completion, the radioactive and unlabeled polyamine competing for the limited number of conjugation sites. […] In all cases, the maximum incorporation was achieved by 30-60 minutes and was stable to another hour.
The reaction was initiated by the addition of transglutaminase solution (10 μl), incubated 60 minutes at 37° C. […] Triplicate aliquots (35 μl) of the solution were spotted on 1.5×8 cm instant thin-layer chromatography strips at a site 1.5 cm above the bottom edge which had previously received 60 μl of 20% trichloroacetic acid. Ascending chromatography was immediately carried out in 5% trichloroacetic acid containing 0.2 M KCl. After the solvent front had reached the top of the strip (ca. 10 minutes), a 2.5-cm segment from 1.5 cm above the 1 cm below the origin was cut out, dried, and the segment counted in 6 ml of scintillation liquid (toluene/Omnifluor, New England Nuclear, Boston).

| 50% displacement of [3H]putrescine incorporation [pmol] | SMILES |
| --- | --- |
| 800 | NCCCCN [putrescine, Putrescine] |
| 800 | NCCCNCCCCNCCCN [spermine] |
| 800 | NCCCCNCCCN [spermidine, Spermidine] |
